Source: patent US7354728B2, “Coactivation of nuclear receptors” (N.V. Organon, priority 2000, dated 2008)

Experiments:
[1] = target: ERβ and COASTER (Homo sapiens, UniProt Q92731); assay: Yeast two-hybrid assay, β-galactosidase reporter, ERβ with COASTER amino acids 1-234; format: cell-based; conditions: yeast AH109, pGBT9.ERβ + pACT2.COASTERΔ; 10^−8 M 17β-estradiol, 10^−5 M raloxifen
[2] = test system: ERα/β chimera
[3] = target: T1, ERβ (Homo sapiens, UniProt Q92731); assay: Transient transfection of U-2 OS cells with ERβ and ERE luciferase reporter, with or without COASTER; format: cell-based; conditions: 10^−8 M ligand, ± SD triplicate
T1 construct: expressed in transfected cells; host or cells: U-2 OS
T1 sequence (Q92731 whole entry): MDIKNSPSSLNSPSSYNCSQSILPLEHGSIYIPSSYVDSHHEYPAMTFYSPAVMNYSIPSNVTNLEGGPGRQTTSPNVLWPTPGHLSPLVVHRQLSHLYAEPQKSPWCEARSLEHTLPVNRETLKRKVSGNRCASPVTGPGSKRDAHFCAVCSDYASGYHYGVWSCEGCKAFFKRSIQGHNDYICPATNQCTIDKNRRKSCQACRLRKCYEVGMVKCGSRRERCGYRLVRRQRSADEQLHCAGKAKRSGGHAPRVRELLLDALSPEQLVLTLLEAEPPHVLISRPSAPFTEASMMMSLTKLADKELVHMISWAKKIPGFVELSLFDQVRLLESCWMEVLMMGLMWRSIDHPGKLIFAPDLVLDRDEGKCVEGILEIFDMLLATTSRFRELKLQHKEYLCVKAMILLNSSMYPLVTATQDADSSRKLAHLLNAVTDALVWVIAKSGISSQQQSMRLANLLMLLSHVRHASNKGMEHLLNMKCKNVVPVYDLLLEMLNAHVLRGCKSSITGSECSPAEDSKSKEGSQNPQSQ
Method: (§1) To test the functional role of COASTER in a mammalian setting, the full length COASTER (amino acids 1-1013) cDNA was cloned in a mammalian cell expression vector. The functional role of COASTER was analyzed by cotransfection of U-2 OS cells with the COASTER expression plasmid in combination with a steroid receptor expressing plasmid, and a plasmid containing a luciferase reporter gene under control of a hormone responsive element. Following transfection, cells were stimulated with the appropriate hormone for the receptor under study.
(§2) U-2 OS cells were transiently transfected with pNGV1.ERβ and p4ERE-TATA-LUC (1), pNGV1.ERα and p4ERE-TATA-LUC (2), pKCRE.PR and pMMTV-LUC (3) or pNGV1.GR and pMMTV-LUC (4). Where indicated, COASTER expression construct pCDNA3.1HISC.COASTER was added to the transfection mixture. Following transfection, cell were incubated with the hormones indicated in the top row. […] Org 2058=16α-ethyl-21-hydroxy-19-norpregn-4-ene-3,20-dione.
(§3) Initially, a plasmid encoding a truncated form of COASTER (pACT2.COASTERΔ, amino acids 1-234) was isolated in the yeast two hybrid screen. […] The 5′ end of the COASTER (amino acid 1 to 332) was amplified by PCR on human-testis Marathon Ready cDNA (Clontech, Palo Alto, USA, cat.#7414-1) using primers […] […]

[4] = target: progesterone receptor (PR) (Homo sapiens, UniProt P06401); assay: Transient transfection of U-2 OS cells with PR and pMMTV-LUC reporter, with or without COASTER; format: cell-based; conditions: 10^−8 M ligand, ± SD triplicate
progesterone receptor (PR), sequence (P06401 whole entry, species assumed): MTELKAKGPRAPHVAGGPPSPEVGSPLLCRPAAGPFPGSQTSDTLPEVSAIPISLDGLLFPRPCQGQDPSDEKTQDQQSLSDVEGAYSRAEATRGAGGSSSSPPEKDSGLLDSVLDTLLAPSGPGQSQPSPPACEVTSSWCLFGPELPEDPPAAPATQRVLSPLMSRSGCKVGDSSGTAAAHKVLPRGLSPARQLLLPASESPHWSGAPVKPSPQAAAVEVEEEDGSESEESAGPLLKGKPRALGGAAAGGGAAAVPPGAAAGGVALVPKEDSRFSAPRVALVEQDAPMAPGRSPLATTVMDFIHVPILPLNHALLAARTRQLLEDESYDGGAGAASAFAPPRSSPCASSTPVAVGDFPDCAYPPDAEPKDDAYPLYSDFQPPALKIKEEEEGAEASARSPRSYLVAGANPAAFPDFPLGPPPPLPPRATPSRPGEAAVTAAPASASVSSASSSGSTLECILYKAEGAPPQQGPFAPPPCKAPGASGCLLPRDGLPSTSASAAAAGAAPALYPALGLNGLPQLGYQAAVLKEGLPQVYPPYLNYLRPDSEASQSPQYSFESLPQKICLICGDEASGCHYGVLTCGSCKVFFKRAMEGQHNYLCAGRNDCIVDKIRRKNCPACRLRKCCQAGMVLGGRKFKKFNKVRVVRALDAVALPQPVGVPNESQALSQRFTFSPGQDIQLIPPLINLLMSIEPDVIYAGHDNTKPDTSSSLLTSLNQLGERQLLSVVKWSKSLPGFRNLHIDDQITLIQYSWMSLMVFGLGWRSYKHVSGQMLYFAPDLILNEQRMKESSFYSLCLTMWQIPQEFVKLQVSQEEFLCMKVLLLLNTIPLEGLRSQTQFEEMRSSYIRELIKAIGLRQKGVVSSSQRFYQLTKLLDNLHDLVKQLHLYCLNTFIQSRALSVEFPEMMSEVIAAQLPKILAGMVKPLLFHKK
Method: as §1, §2, §3

[5] = target: glucocorticoid receptor, expressed from pNGV1.GR in U-2 OS cells (human) (UniProt P04150); assay: cell-based or functional assay
glucocorticoid receptor, expressed from pNGV1.GR in U-2 OS cells (human), sequence (P04150 whole entry): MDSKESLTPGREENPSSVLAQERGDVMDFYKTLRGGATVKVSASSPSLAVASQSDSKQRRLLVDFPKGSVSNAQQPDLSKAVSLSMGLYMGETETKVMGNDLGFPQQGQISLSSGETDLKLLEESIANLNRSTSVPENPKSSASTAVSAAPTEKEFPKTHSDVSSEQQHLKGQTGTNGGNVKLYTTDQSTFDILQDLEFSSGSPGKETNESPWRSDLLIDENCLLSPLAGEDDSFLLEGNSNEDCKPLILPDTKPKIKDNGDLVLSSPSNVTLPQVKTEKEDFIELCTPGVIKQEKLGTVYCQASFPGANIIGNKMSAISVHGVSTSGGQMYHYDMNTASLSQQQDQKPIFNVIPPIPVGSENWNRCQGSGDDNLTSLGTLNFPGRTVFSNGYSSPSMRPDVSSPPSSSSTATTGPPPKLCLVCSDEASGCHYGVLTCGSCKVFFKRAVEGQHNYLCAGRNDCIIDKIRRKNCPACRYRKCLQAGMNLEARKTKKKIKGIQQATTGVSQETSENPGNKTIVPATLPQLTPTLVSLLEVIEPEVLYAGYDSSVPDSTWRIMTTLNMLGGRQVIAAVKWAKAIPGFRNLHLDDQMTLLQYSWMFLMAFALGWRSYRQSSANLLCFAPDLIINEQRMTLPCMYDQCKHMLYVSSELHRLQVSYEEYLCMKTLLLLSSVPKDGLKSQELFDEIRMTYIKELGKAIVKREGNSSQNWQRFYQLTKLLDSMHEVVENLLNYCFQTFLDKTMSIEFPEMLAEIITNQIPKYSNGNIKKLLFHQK

[6] = target: human estrogen receptor β, expressed from pNGV1.ERβ in U-2 OS cells (human) (UniProt Q92731); assay: cell-based or functional assay
human estrogen receptor β, expressed from pNGV1.ERβ in U-2 OS cells (human), sequence (Q92731 whole entry): as the sequence (Q92731 whole entry) above

[7] = target: progesterone receptor, expressed from pKCRE.PR in U-2 OS cells; assay: cell-based or functional assay

ERβ and COASTER, sequence (Q92731 whole entry, the tested form may be a part): as the sequence (Q92731 whole entry) above

## C[C@]12CC[C@@H]3c4ccc(O)cc4CC[C@H]3[C@@H]1CC[C@@H]2O [17β-estradiol]
[1]
  β-galactosidase reporter activity (ERβ-COASTER interaction, FIG. 3): dose-dependent induction
[2]
  signalling via the ERα/β chimera: able to signal
[3]; pNGV1.ERβ + p4ERE-TATA-LUC + COASTER
  luciferase activity: 8200 ± 819
[3]; pNGV1.ERβ + p4ERE-TATA-LUC, no COASTER
  luciferase activity: 500 ± 109

## O=C(c1ccc(OCCN2CCCCC2)cc1)c1c(-c2ccc(O)cc2)sc2cc(O)ccc12 [raloxifen]
[2]
  signalling via the ERα/β chimera: able to signal

## CC[C@@H]1C[C@H]2[C@@H]3CCC4=CC(=O)CC[C@@H]4[C@H]3CC[C@]2(C)[C@H]1C(=O)CO [Org 2058, 16α-ethyl-21-hydroxy-19-norpregn-4-ene-3,20-dione]
[4]; pKCRE.PR + pMMTV-LUC + COASTER
  luciferase activity: 3229 ± 683
[4]; pKCRE.PR + pMMTV-LUC, no COASTER
  luciferase activity: 822 ± 112

## full length COASTER (amino acids 1-1013), expressed from pCDNA3.1HISC.COASTER (from UniProt Q9Y4E5 1-1013)
[5]
  luciferase activity, pMMTV-LUC in U-2 OS cells, 10^-8 M Dexamethasone (luciferase activity): 35200
  luciferase activity, pMMTV-LUC in U-2 OS cells, no hormone (luciferase activity): 103
[6]
  luciferase activity, p4ERE-TATA-LUC in U-2 OS cells, 10^-8 M 17β-estradiol (luciferase activity): 8200
  luciferase activity, p4ERE-TATA-LUC in U-2 OS cells, 10^-8 M ICI 164,384 (luciferase activity): 101
  luciferase activity, p4ERE-TATA-LUC in U-2 OS cells, no hormone (luciferase activity): 133
[7]
  luciferase activity, pMMTV-LUC in U-2 OS cells, 10^-8 M Org 2058 (luciferase activity): 3230
  luciferase activity, pMMTV-LUC in U-2 OS cells, no hormone (luciferase activity): 81
